# Measurements reported in ChEMBL document CHEMBL1122983, “Synthesis and dopaminergic activity of (R)- and (S)-4-hydroxy-2-(di-n-propylamino)indan” (J Med Chem, 1985).
# Biological target: Dopamine receptor (Homo sapiens) (UniProt P14416+P35462+P21918+P21917+P21728)
# Conditions: Felis catus
# Description: Inhibition of stimulation-induced tachycardia via the presynaptic dopamine receptors
row,SMILES,ID50 [µM]
1,CCCN(CCC)[C@H]1Cc2cccc(O)c2C1,0.72
2,CCCN(CCC)[C@@H]1Cc2cccc(O)c2C1,0.007
